Article PMC7725785, “TRIB3 promotes MYC-associated lymphoma development through suppression of UBE3B-mediated MYC degradation” (Nature Communications, 2020)
Where a SMILES comes first, the peptide text is derived from it. [ ]: non-standard residue; d: D form.

Tests used:
[1] = molecular target: T1, TRIB3 protein (Homo sapiens, UniProt Q96RU7); test: SPR kinetic interaction of α-helical peptides (CM1-CM4) with TRIB3; type: binding
T1 construct: GST; purchased Sinobiological Inc. 10731-H09B
T1 sequence (Q96RU7 1-358): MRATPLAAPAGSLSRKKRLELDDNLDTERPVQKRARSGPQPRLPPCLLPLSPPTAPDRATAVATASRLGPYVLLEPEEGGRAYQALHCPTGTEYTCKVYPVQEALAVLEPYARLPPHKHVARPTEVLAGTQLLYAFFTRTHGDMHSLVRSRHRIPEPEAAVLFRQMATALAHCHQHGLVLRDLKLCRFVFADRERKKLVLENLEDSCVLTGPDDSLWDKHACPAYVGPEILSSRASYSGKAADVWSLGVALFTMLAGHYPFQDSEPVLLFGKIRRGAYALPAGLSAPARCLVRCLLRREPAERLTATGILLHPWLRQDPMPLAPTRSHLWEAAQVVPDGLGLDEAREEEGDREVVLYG
Procedure: (§1) Binding kinetics between MYC and UBE3B, TRIB3 and the indicated α helical peptides, MAX and the indicated α helical peptides, or MYC and MAX were analyzed using a BIAcore T200 instrument (GE Healthcare, CA, USA) as described previously. Briefly, binding reactions were performed in HBS-EP buffer (GE Healthcare) at pH 7.4. TRIB3/MYC/MAX protein was coated on the flow cell of a CM5 sensor chip by direct immobilization. Another flow cell, not coated with an immobilized protein, was used to evaluate nonspecific binding. The binding analyses were performed at a flow rate of 25 μl/min at 25 °C. A total of 0–200 nM peptide or 0–500 nM TRIB3 protein was passed over the surface of the sensor chip. The association rate constant (Ka) and the dissociation rate constant (Kd) were calculated according to the BIA evaluation software. The dissociation constant (KD) was determined by Kd/Ka.

[2] = system: TRIB3 and MYC; test: SPR kinetic interaction of TRIB3 and MYC proteins with or without CM4; type: binding; conditions: in vitro, result in words
Procedure: as §1

[3] = system: MYC and MAX; test: Duolink PLA of MYC and MAX colocalization in Raji cells; type: cell-based, human; conditions: peptide 4 µM 12 hr, MG132 20 μM 6 hr, result in words
Procedure: A total of 1 × 10^6 cells were seeded overnight in a six-well plate. The next day, cells were collected, fixed in 4% paraformaldehyde solution, permeabilized with 0.5% Triton-X100, blocked with Duolink® Blocking Solution, and probed with antibodies directed against MYC (R&D, NB600-302, 1:100), TRIB3 (Novus, H00057761-M03, 1:100), UBE3B (Invitrogen, PA5-59390, 1:100), and MAX (Cell Signaling Technology, #4739, 1:100). The cells were then treated with the Duolink In Situ Red Starter Mouse/Rabbit kit (Sigma Aldrich, DUO92101-1KT) according to the manufacturer’s instructions. Images were captured with an OLYMPUS confocal microscope.

[4] = system: MAX protein; test: SPR kinetic interaction of α-helical peptides (CM1-CM4) with MAX; type: binding; conditions: result in words
Procedure: as §1

[5] = system: MAX and MYC; test: SPR kinetic interaction of MAX and MYC proteins with indicated peptides (CM1-CM4); type: binding; conditions: result in words
Procedure: as §1

[6] = system: MYC polyubiquitination by UBE3B; test: In vitro ubiquitination assay of MYC (UBE3B, UBCH3); type: biochemical; conditions: result in words
Procedure: In vitro ubiquitination was performed according to the protocol provided with the Ubiquitination Kit (UW9920, BioMol) with some modifications. Briefly, MYC-His, UBE3B-His, UBE3B-(R346Q)-His, UBE3B-(C1036A)-His, and UBE3B-C-His were expressed in free-style 293 cells and purified by a Ni2+-NTA resin (GE). The assays were carried out at 37 °C in a 50-μl reaction mixture containing 20 U/ml inorganic pyrophosphatase (Sigma Aldrich), 5 mM dithiothreitol, 5 mM Mg-ATP, 100 nM E1, […], […], […], and […]. […] To obtain accurate results, the PAGE gel was run for a relatively long time until protein bands smaller than 40 kDa ran off the bottom line of the gel as judged by the protein molecular weight marker. Then, the protein was transferred to a polyvinylidene difluoride membrane (PVDF). To reduce the background noise, an anti-MYC antibody (Cell Signaling Technology, 1:1000) was used to detect MYC polyubiquitination via western blot analysis instead of the HRP-Streptavidin detection system recommended by the kit for the detection of biotinylated ubiquitin.

[7] = system: MYC and UBE3B; test: In vitro coimmunoprecipitation of purified MYC, UBE3B and TRIB3 with or without CM4; type: binding; conditions: purified His-MYC, His-UBE3B and GST-TRIB3 with or without CM4; result in words
Procedure: Co-IP experiments were performed as described in the section of immunoprecipitation.

## CC(C)C[C@@H](NC(=O)[C@@H](CCC(N)=O)NC(=O)[C@@H](CCC(=O)O)NC(=O)[C@@H](CC(C)C)NC(=O)[C@@H](CCCCN)NC(=O)[C@@H](Cc1c[nH]cn1)NC(=O)[C@@H](CCCCN)NC(=O)[C@@H](CC(C)C)NC(=O)[C@@H](CCC(N)=O)NC(=O)[C@@H](CCC(=O)O)NC(=O)[C@@H](CCCNC(=N)N)NC(=O)[C@@H](CCCNC(=N)N)NC(=O)[C@H](N)CCCCN)C(=O)N[C@H](CCCNC(=N)N)C(=O)O [CM4] (H-[dK][dR][dR][dE][dQ][dL][dK][dH][dK][dL][dE][dQ][dL][dR]-OH; N-terminus and C-terminus assumed)
[1]; BIAcore T200, HBS-EP pH 7.4, 25 °C, printed in Fig. 6a
  Kd: 76.4 nM
[1]; BIAcore T200, HBS-EP pH 7.4, 25 °C, printed in Fig. 6a, read-out: ka
  kon: 1.01e+06 M⁻¹ s⁻¹
[1]; result in words
  binding affinity for TRIB3: high binding affinity
[2]
  effect on the binding affinity of TRIB3 and MYC: decreased the binding affinity of TRIB3 and MYC
[3]
  colocalization of MYC and MAX in MG132-treated Raji cells: did not affect the colocalization of MYC and MAX
[4]
  ability to bind MAX: not
[5]
  effect on the binding of MYC and MAX: not
[6]
  polyubiquitination of MYC in vitro: restored the polyubiquitination of MYC
[7]
  binding of MYC and UBE3B in vitro: increased the binding of MYC and UBE3B
